Laboratory results from patent US20220402883A1, “COMPOUNDS AND METHODS FOR MODULATING RNA FUNCTION” (Arrakis Therapeutics, Inc., priority 2016, published 2022).

What was measured:
[1] = tested on: Split3WJ.2 up_5IB+Split3WJ.2_down_3FAM (trans 3WJ as 1:1 mix); experiment: Fluorescence quenching binding assay (FAM / Iowa Black); conditions: two concentration points
Description: (§1) This assay will be used to test binding of compounds for RNA three way junction (such as a 38 nt construct). This is a fluorescence quenching assay utilizing FAM as fluorescence tag and Iowa Black as quencher. Tags are attached at the 3′ and 5′ end, respectively. Stable formation of MW upon compound binding would lead to quenching of the FAM fluorescence due to close proximity of the Iowa Black tag. Assay readout: FAM (485-520 nm) Fluorescence Intensity.
(§2) Assay sample buffer used: 10 mM CacoK pH 7.2, 30 mM NaCl. Buffer preparation in Dnase/Rnase Free distilled water (Gibco Life Technologies).
(§3) Dilute the RNA 1:10 (final 10 μM) in Assay Buffer.
(§4) Heat up the diluted RNA up to 90° C. for 5 min (sealed Eppendorf Tube).
(§5) Cool down the RNA probe slowly to RT.
(§6) Dilute the compounds to 800 μM in DMSO (Assay: 8 μM).
(§7) Final concentrations in the sample: 1-10 μM RNA, 8 μM compound, 1% DMSO
(§8) Pipet 25 μL Sample Solution into Greiner cat #784076, black, 384
(§9) Measure the 96 plate with the LightCycler480 (Channel: 485/520 nm).
(§10) The fluorescence quenching experiment was repeated for compounds Ark0000013 and Ark0000014 to measure binding with:
C) Split3WJ.2 up_5IB+Split3WJ.2_down_3FAM (trans 3WJ as 1:1 mix)
(§11) Both cmpds were tested at two concentration points in the fluorescence quenching assays to assess effect upon RNA constructs utilized in the study. […]

[2] = tested on: RNA3WJ_3.0.0_5IB_3FAM; experiment: Thermal shift binding assay; conditions: 1 μM RNA, 8 μM compound, 10 mM CacoK pH 7.2, 30 mM NaCl
Text: (§12) Purpose: Test binding of compounds for RNA three way junction (for example, a construct of 38 nt). Thermal shift assay based on established fluorescence quenching assay utilizing FAM as fluorescence tag and Iowa Black as quencher. Tags were attached at the 3′ and 5′ end, respectively. Stable formation of 3WJ upon compound binding would lead to quenching of the FAM fluorescence due to close proximity of the Iowa Black tag. Thermal unfolding leads to increase of fluorescence emission. Assay readout: FAM (465-510 nm) Thermal Shift.
as §2, §3, §4, §5
(§13) Dilute the compounds to 800 μM in DMSO (Assay: 8 μM). […]
(§14) Pipet 20 μL Sample Solution into Roche, Light Cycler480 Multiwell Plate96, white, REF 04729692001.
(§15) Measure the 96 plate with the LightCycler480 (Channel: 480/510 nm; Temperature: 41-91° C.).
(§16) Analyse measurement-data with the MeltingCurveGenotyping Mode.
(§17) Settings: Acquisition mode: continuous; Ramp rate: 0.1° C./sec; Acquisition: 6° C.
(§18) Curves are fitted with raw and normalized data.
(§19) Melting curves analysis show melting temperature (Tm) of ˜51° C. Range of RNA concentrations was tested and assay window was determined (conc. range of 0.5-1 μM yields best results). The choice of buffer also affected the Tm. RNA constructs were tested under different buffer conditions (especially in presence of salt) in the thermal shift assay. […] CacoK with 30 mM salt at 1 μM RNA conc. was used to assess compound effects on 3WJ stability. […] These conditions were used for screening test compounds.

[3] = tested on: RNA3WJ_0.0.0_5IB_3FAM (3WJ_0.0.0_5IB_3FAM RNA construct); experiment: Thermal shift binding assay
Text: as §12, §2, §3, §4, §5, §13, §14, §15, §16, §17, §18, §19

[4] = tested on: Split3WJ.1_up_5IB+Split3WJ.1_down_3FAM (trans 3WJ as 1:1 mix); experiment: Fluorescence quenching binding assay (FAM / Iowa Black); conditions: two concentration points
Description: as §1, §2, §3, §4, §5, §6, §7, §8, §9, §10
B) Split3WJ.1_up_5IB+Split3WJ.1_down_3FAM (trans 3WJ as 1:1 mix)
as §11

[5] = tested on: RNA3WJ_1.1.1_5IB_3FAM; experiment: Thermal shift binding assay; conditions: 1 μM RNA, 8 μM compound, 10 mM CacoK pH 7.2, 30 mM NaCl
Text: as §12, §2, §3, §4, §5, §6
(§20) Final concentrations in the sample: 1 μM RNA, 8 μM compound, 1% DMSO
as §14, §15, §16, §17, §18, §19

[6] = tested on: RNA3WJ_1.1.0_5IB_3FAM; experiment: Thermal shift binding assay; conditions: 1 μM RNA, 8 μM compound, 10 mM CacoK pH 7.2, 30 mM NaCl
Text: as §12, §2, §3, §4, §5, §6, §20, §14, §15, §16, §17, §18, §19

[7] = tested on: RNA3WJ_2.1.0_5IB_3FAM; experiment: Thermal shift binding assay; conditions: 1 μM RNA, 8 μM compound, 10 mM CacoK pH 7.2, 30 mM NaCl
Text: as §12, §2, §3, §4, §5, §6, §20, §14, §15, §16, §17, §18, §19

[8] = tested on: RNA3WJ_2.0.0_5IB_3FAM; experiment: Thermal shift binding assay; conditions: 1 μM RNA, 8 μM compound, 10 mM CacoK pH 7.2, 30 mM NaCl
Text: as §12, §2, §3, §4, §5, §6, §20, §14, §15, §16, §17, §18, §19

[9] = tested on: RNA3WJ_1.0.0_5IB_3FAM (cis 3WJ with one unpaired nucleotide); experiment: Fluorescence quenching binding assay (FAM / Iowa Black); conditions: two concentration points
Description: as §1, §2, §3, §4, §5, §6, §7, §8, §9, §10
A) RNA3WJ_1.0.0_5IB_3FAM (cis 3WJ with one unpaired nucleotide)
as §11

[10] = tested on: RNA3WJ_1.0.0_5IB_3FAM (cis 3WJ with one unpaired nucleotide); experiment: Thermal shift binding assay; conditions: 1 μM RNA, 8 μM compound, 10 mM CacoK pH 7.2, 30 mM NaCl
Text: as §12, §2, §3, §4, §5, §6, §20, §14, §15, §16, §17, §18, §19
(§21) Compounds Ark0000013 and Ark0000014 were also tested in the thermal shift assay against three RNA 3WJ constructs, A) RNA3WJ_1.0.0_5IB_3FAM (cis 3WJ with one unpaired nucleotide); B) Split3WJ.1_up_5IB+Split3WJ.1_down_3FAM (trans 3WJ as 1:1 mix); and C) Split3WJ.2_up_5IB+Split3WJ.2_down_3FAM (trans 3WJ as 1:1 mix).

[11] = tested on: Split3WJ.1_up_5IB+Split3WJ.1_down_3FAM (trans 3WJ as 1:1 mix; Split3WJ_1); experiment: Thermal shift binding assay; conditions: 1 μM RNA, 8 μM compound, 10 mM CacoK pH 7.2, 30 mM NaCl
Text: as §12, §2, §3, §4, §5, §6, §20, §14, §15, §16, §17, §18, §19, §21

[12] = tested on: Split3WJ.2_up_5IB+Split3WJ.2_down_3FAM (trans 3WJ as 1:1 mix; Split3WJ_2); experiment: Thermal shift binding assay; conditions: 1 μM RNA, 8 μM compound, 10 mM CacoK pH 7.2, 30 mM NaCl
Text: as §12, §2, §3, §4, §5, §6, §20, §14, §15, §16, §17, §18, §19, §21

[13] = 1 μM RNA, 8 μM compound, 10 mM CacoK pH 7.2, 30 mM NaCl

NCCCCCCCNC(=O)c1ccc2c(c1)C1c3cc(C(=O)NCCCCCCCN)ccc3C2c2ccc(C(=O)NCCCCCCCN)cc21 [Ark000014, N^2,N^7,N^15-tris(7-aminoheptyl)-9,10-dihydro-9,10-[1,2]benzenoanthracene-2,7,15-tricarboxamide]
fluorescence quenching effect (FAM fluorescence signal) [1]: Split3WJ_2 shows larger effect | Melting temp + cmpd [2]: 63.9 °C | Temp. Shift [2]: 1.9 °C | Melting temp + cmpd [3, 13]: 61.5 °C | Temp. Shift [3, 13]: 1.6 °C | Melt. Temp. with cmpd ([3]; RNA sequence 3WJ_0.0.0_5IB_FAM, melting temperature in presence of compound): 61.5 °C | Shift melt. Temp. ([3]; RNA sequence 3WJ_0.0.0_5IB_FAM, with cmpd minus without cmpd): +1.6 °C | fluorescence quenching effect (FAM fluorescence signal) [4]: smaller effect | Melting temp + cmpd [5]: 64.3 °C | Temp. Shift [5]: 2.1 °C | Melting temp + cmpd [6]: 65.1 °C | Temp. Shift [6]: 1.8 °C | Melting temp + cmpd [7]: 42.0 °C | Temp. Shift [7]: 0.1 °C | Melting temp + cmpd [8]: 64.4 °C | Temp. Shift [8]: 2.2 °C | fluorescence quenching effect (FAM fluorescence signal) [9]: smaller effect | Melting temp + cmpd [10]: 68.4 °C | Temp. Shift [10]: ~3 °C | Melting temp + cmpd ([10]; listed as Ark0000014): 68.1 °C | Temp. Shift ([10]; listed as Ark0000014): 2.5 °C | Melting temp + cmpd [11]: 38.8 °C | Temp. Shift [11]: ~1 °C | Melting temp + cmpd ([11]; listed as Ark0000014): 37.8 °C | Temp. Shift ([11]; listed as Ark0000014): 0.3 °C | Melting temp + cmpd [12]: 44.7 °C | Temp. Shift [12]: ~1 °C | Melting temp + cmpd ([12]; listed as Ark0000014): 44.0 °C | Temp. Shift ([12]; listed as Ark0000014): −0.3 °C
